# According to patent publication US20250161313A1, “A METHOD FOR THE TREATMENT OF NEUROPATHY” (INSTITUT NATIONAL DE LA SANTÉ ET DE LA RECHERCHE MÉDICALE, priority 2022, published 2025):
# Assays:
# mEERL cells = experiment: Tumor size in mEERL syngeneic in vivo tumor model; details: mEERL tumor-bearing mice; cisplatin plus KW6002 vs. cisplatin; FIG. 3E
# Procedure: (§1) We used a validated murine model of HPV+ oropharyngeal squamous cell carcinoma as previously described (noncommercial) (80). This model consists of oropharyngeal epithelial cells from C57Bl/6 male mice that stably express the HPV16 viral oncogenes E6 and E7, H-Ras, and luciferase (mEERL cells). mEERL cells were grown in a T75 flask until confluent, after which cells were trypsinized and harvested, washed 3 times with sterile PBS, and resuspended in 1 mL sterile PBS to the appropriate concentration. Mice were injected s.c. into the right flank with 20 μL solution containing either 1,000,000 mEERL cells or PBS (vehicle). The day of mEERL cell injection is indicated as day −14. Tumor volume was monitored using Vernier digital calipers. When the tumor volume reached 100 mm3, the mice were randomly ascribed to 1 of the 3 experimental groups (vehicle; cisplatin; or cisplatin plus KW6002).
# C57B16/J mice [1] = experiment: Mechanical pain sensitivity (von Frey filaments) in sub-chronic cisplatin model; format: in vivo; details: KW-6002 3 mg/kg i.p. daily day -5 to day 7; cisplatin 3 mg/kg i.p. for 6 days; vs. cisplatin; FIG. 1A
# Procedure: (§2) Animal experiments were adapted from 63-64. Animal procedures were performed in 8 to 10 weeks old male C57B16/J mice (Janvier Labs except for pain experiments, Jackson lab). Mice were fed a laboratory standard diet with water and food ad libitum and were kept under constant environmental conditions with a 12-hour light-dark cycle. Istradefylline (KW-6002; Tocris) was dissolved in a carrier solution consisting in 15% DMSO, 15% cremophor (Sigma), 70% saline solution (vehicle). Cisplatin (Accord Healthcare) was dissolved in saline solution. Neuropathy resulting from of sub-chronic cisplatin was evaluated following six daily i.p. injections of cisplatin (3 mg/kg) starting at day 0 and mice were sacrificed 72h after the last injection of cisplatin (day 8). KW-6002 was administered daily i.p. from day −5 to day 7 (FIG. 2).
# (§3) Mechanical pain sensitivity, a classical read out for CIPN in rodents, was assessed using von Frey filaments as previously described (65-66). Briefly, mice were placed in opaque boxes (10×10×10 cm). After a 30 min habituation period, von Frey filaments were applied, and the paw withdrawal threshold was calculated using the “up & down” method. Behavioral testing was performed by experimenter blinded to treatment and genotype.
# [2] = system: KIM-1, Tnf and Il6 expression; experiment: Cisplatin-induced nephrotoxicity markers (mRNA) in mEERL tumor-bearing mice; format: in vivo; details: cisplatin plus KW6002 vs. cisplatin
# Procedure: as §1
# (§4) Reverse transcription was performed on 1 μg of RNA using high-capacity cDNA reverse transcription kit (Thermo Fisher), according the manufacturer's recommendation. Real time PCR was performed on a StepOne device using Taqman Gene Expression Master Mix (Thermo Fisher), following manufacturer's recommendations. Expression levels of the following genes were evaluated using comparative CT method (2-deltaCT): Tumor Necrosis Factor alpha (Tnfa, Assay ID Mm00443258_m1), Interleukin-6 (Il6, Assay ID Mm00446190_m1), Il1b (assay ID Mm00434228_m1); chemokine (C-C motif) ligand 2 (Ccl2, assay ID Mm00441242_m1). Transcript levels of PPIA (Mm02342430_m1) were used as endogenous control.
# [3] = system: Il6, Tnf, Il1b and Ccl2 expression in DRG and spinal cord; experiment: mRNA levels of cytokines in spinal cord and DRG (quantitative RT-PCR), sub-chronic cisplatin model; format: in vivo, mice; details: 8 days after start of cisplatin treatment, vs. cisplatin
# Procedure: as §2
# Lumbar dorsal root ganglion (DRG) and spinal cord tissues were quickly dissected and snap-frozen in liquid nitrogen.
# For DRG and spinal cord tissues, total RNA was extracted with phenol/chloroform and subsequently precipitated in isopropanol as described previously (71).
# as §4
# C57B16/J mice [4] = experiment: Mechanical sensitivity (von Frey hairs) in mEERL tumor-bearing mice; format: in vivo; details: cisplatin plus KW6002 vs. cisplatin, FIG. 3D
# Procedure: as §1, §3
compound,measurement,setting,value
"CCn1c(=O)c2c(nc(/C=C/c3ccc(OC)c(OC)c3)n2C)n(CC)c1=O [KW-6002, 8-[(E)-2-(3,4-dimethoxyphenyl)vinyl]-1,3-diethyl-7-methyl-3,7-dihydro-1H-purine-2,6-dione]",tumor control by cisplatin (absolute tumor size),mEERL cells,significantly potentiated
same,"cisplatin-induced pain hypersensitivity (mechanical sensitivity, von Frey)",C57B16/J mice [1],significantly mitigated pain hypersensitivity
same,indicator of renal toxicity KIM-1 (mRNA) induced by cisplatin,[2]; FIG. 3A,limited
same,expression of inflammatory cytokine Tnf induced by cisplatin,[2]; FIG. 3B,limited
same,expression of inflammatory cytokine Il6 induced by cisplatin,[2]; FIG. 3C,limited
same,Tnf mRNA level in spinal cord,"[3]; KW-6002 3 mg/kg, FIG. 1C",significantly downregulated
same,Il6 mRNA level in DRG,"[3]; KW-6002 3 mg/kg, FIG. 1D",significantly downregulated
same,Tnf mRNA level in DRG,"[3]; KW-6002 3 mg/kg, FIG. 1E",significantly downregulated
same,Il 1b mRNA level in DRG,[3]; FIG. 1F,significantly reversed the upregulation
same,Ccl2 mRNA level in DRG,[3]; FIG. 1G,significantly reversed the upregulation
same,cisplatin-induced pain hypersensitivity (von Frey),C57B16/J mice [4],alleviated
